Measurements as given in PubChem BioAssay AID1902 (Broad Institute, 2009).
Active and inactive are the calls of the source.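 The calls were made as follows: active = EC50 no more than a set limit of log units above the highest dose; inactive = the rest.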

Molecular target: S. pyogenes SKKanGAS, kanamycin survival, BacTiterGlo, 6 h
Test: S. pyogenes SKKanGAS kanamycin growth inhibitors – SKKanGAS strain, luminescence, dose confirmation, streptokinase promoter inhibitor project, dose response (AID 1902);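 also: lower survival reflects blocked streptokinase promoter driving kanamycin resistance gene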

First: CC1(C)S[C@@H]2[C@H](NC(=O)COc3ccccc3)C(=O)N2C1C(=O)OCc1ccccc1 (some centres not stated)
Second: CCOc1ccccc1NC(=O)c1nc(S(=O)(=O)Cc2ccccc2)ncc1Cl
The EC50 of the first is 8.5-fold lower: 1.04 µM for the first, 8.85 µM for the second. The first is the more potent here.

First: Cn1ncc2c(Nc3ccc(Br)cc3)nc(Nc3ccc(Br)cc3)nc21
Second: Brc1ccc(-c2cn3c(n2)CCc2ccc4cccnc4c2-3)cc1
The EC50 of the first is 1.6-fold lower: 1.08 µM for the first, 1.77 µM for the second.

Going from `N#C/C(=C(/O)c1ccc([N+](=O)[O-])o1)c1nc2ccccc2[nH]1` to `Cc1cccc(-n2nc(C(=O)c3ccco3)cc(-c3nc4ccccc4[nH]3)c2=N)c1`, the EC50 rises from 2.05 µM to 3.36 µM (1.6-fold).

Going from `CC(C)Cn1c(=O)c(C(=O)Nc2ccccc2S(N)(=O)=O)c(O)c2ccccc21` to `O=C1c2ccccc2C(=O)c2c1oc(C(F)(F)F)c2C(=O)c1ccccc1`, the EC50 falls from 8.58 µM to 1.82 µM (4.7-fold). The second is the more potent here.

Going from `O=C1/C(=C\c2cccc(O)c2O)SC(=S)N1Cc1ccccc1` to `COc1cc(/C=C2/SC(=S)N(Cc3ccccc3)C2=O)ccc1O`, the EC50 rises from 2.2 µM to 5.8 µM (2.6-fold).

Going from `COC(=O)c1cccc(NC(=S)NCc2ccc(Cl)cc2)c1` to `O=C(OCc1csc(Nc2ccccc2)n1)c1ccc(Cl)cc1`, the EC50 rises from 9.26 µM to 14.3 µM (1.5-fold). The first is the more potent here.

Going from `Cc1ccc2c(=O)[nH]c(Nc3nc(C)cc(-c4ccccc4)n3)nc2c1` to `N#Cc1ccc(-c2ccccc2)nc1SCC(=O)c1cc2ccccc2oc1=O`, the EC50 falls from 3.37 µM to 0.596 µM (5.7-fold). The second is the more potent here.

`O=c1c2cn[nH]c2nc(SCc2c(F)cccc2F)n1-c1ccc(Cl)cc1` and `O=C1c2[nH]nc(-c3ccccc3O)c2C(c2cccc(Cl)c2)N1Cc1ccco1` (configuration not stated) are within 1.5-fold of each other in EC50: 11.1 µM for the first, 7.4 µM for the second.

`COc1ccc([C@H]2Oc3cc(O)cc(O)c3C(=O)C2[C@@H]2C(=O)c3c(O)cc(O)cc3O[C@@H]2c2ccc(OC)cc2)cc1` (some centres not stated) and `O=c1cc(-c2ccc(O)c(-c3c(O)cc(O)c4c(=O)cc(-c5ccc(O)cc5)oc34)c2)oc2cc(O)cc(O)c12` are within 1.5-fold of each other in EC50: 1.61 µM for the first, 2.3 µM for the second.

First: COc1ccc(/C=C2\SC(=N)N(c3nccs3)C2=O)cc1OC
Second: CC1=Nc2ccccc2/C1=C/c1sc(=N)n(-c2nccs2)c1O
The EC50 of the first is 1.9-fold higher: 0.838 µM for the first, 0.452 µM for the second. The second is the more potent here.

Going from `CC(C)(C)[C@H]1CCC(=O)N([C@H](CSc2ccccc2)Cc2ccccc2)CC1` to `O=[N+]([O-])c1cc(S(=O)(=O)Nc2ccccc2)ccc1N1CCN(c2ccccc2)CC1`, the EC50 rises from 3.51 µM to 7.21 µM (2.1-fold). The first is the more potent here.

Compared with `COc1ccccc1C(NC(C)=O)c1cc(Cl)c2cccnc2c1O` (configuration not stated), `COc1cnc(-c2ccccn2)nc1Oc1c(C)cccc1C` is 14-fold lower in EC50: 2.91 µM for the first, 0.202 µM for the second.

First: COc1ccc(C(=O)NC(=S)NNC(=O)[C@H]2C[C@@H]2c2ccccc2)cc1OC
Second: Cc1ccc(C(=O)NC(=S)NNC(=O)c2cccc([N+](=O)[O-])c2)cc1
The EC50 of the first is 1.8-fold lower: 0.914 µM for the first, 1.69 µM for the second. The first is the more potent here.

Going from `Cc1cccc(OCCn2c(NC(=O)c3ccco3)nc3ccccc32)c1` to `CCCn1c(NC(=O)c2cccc(C)c2C)nc2ccccc21`, the EC50 rises from 2.69 µM to 7.37 µM (2.7-fold).

`Cc1ccc(-c2nc3cc(NS(=O)(=O)c4ccc(C)cc4)ccc3o2)cc1` and `COc1ccc(S(=O)(=O)Nc2cc3c4c(oc3c3ccccc23)CC(C)(C)CC4=O)cc1` are within 1.5-fold of each other in EC50: 6.28 µM for the first, 6.26 µM for the second.

Going from `O=C(CCn1cnc(-c2ccccc2)c1-c1ccccc1)N/N=C/c1ccccc1O` to `Nc1nonc1-c1nc2ccccc2n1CC(=O)N/N=C/c1ccc(-c2cccc(C(=O)O)c2)o1`, the EC50 rises from 0.522 µM to 3.02 µM (5.8-fold).

Going from `C[C@H]1CC[C@@]2(C)[C@@H](CC[C@@H]3[C@@H]2CC[C@]2(C)[C@@H](O)CC[C@@H]32)C1` to `C=C[C@]1(C)C[C@@H](OC(=O)CSCCN(CC)CC)[C@]2(C)C(C)CC[C@]3(CCC(=O)[C@H]32)[C@@H](C)[C@@H]1O` (some centres not stated), the EC50 falls from 0.856 µM to under 0.06 µM. The second is the more potent here.

First: CCOC(=O)c1cnc(-n2nc(C)cc2C)nc1NC1CCCCC1
Second: CCC1CCCCN1c1cc(C)nc2cc(-c3cccc(C)c3)nn12 (configuration not stated)
The EC50 of the first is lower: under 0.06 µM for the first, 6.59 µM for the second.

Compared with `Cc1cc(C(=O)N/N=C/c2cc(Br)cc([N+](=O)[O-])c2O)c2ccccc2n1`, `COc1cc(/C=N\NC(=O)c2ccc(Cn3cc(Br)c([N+](=O)[O-])n3)o2)cc(OC)c1O` is 5.6-fold higher in EC50: 0.893 µM for the first, 4.97 µM for the second.

`Cc1c(NCc2cc(Cl)cc(Cl)c2O)c(=O)n(-c2ccccc2)n1C` and `Cc1oc2cc(Br)c(O)c(Br)c2c1-c1ccccc1` are within 1.5-fold of each other in EC50: 3.39 µM for the first, 3.28 µM for the second.

Going from `CCn1cc(Cl)c(C(=O)N2N=C(c3ccc4ccccc4c3)CC2c2ccccc2O)n1` (configuration not stated) to `CC[n+]1c(/C=C2\Sc3ccccc3N2C)ccc2cccc(C)c21`, the EC50 falls from 6.13 µM to 3.84 µM (1.6-fold). The second is the more potent here.

Compared with `COc1cccc2sc(Nc3nnc(-c4ccc(F)cc4)o3)nc12`, `CCOc1ccc2nc(NC(=O)c3ccccn3)sc2c1` is 3.3-fold higher in EC50: 0.546 µM for the first, 1.79 µM for the second.

Going from `CCN(c1ccc(C)cc1C)S(=O)(=O)c1nnc(NC(=O)c2ccco2)s1` to `COCCOC(=O)c1c(C)nc(SCC(=O)Nc2ccc(C)cc2)c(C#N)c1-c1ccco1`, the EC50 rises from 4.2 µM to 6.68 µM (1.6-fold).

Going from `COc1ccc(C(=O)c2c(C(F)(F)F)oc3c2C(=O)c2ccccc2C3=O)cc1` to `O=C(Nc1cccc(-c2csc(Nc3cccc(C(F)(F)F)c3)n2)c1)c1ccccc1`, the EC50 rises from 1.99 µM to 4.33 µM (2.2-fold).

Going from `CC(C)(C)c1cc(C(=O)NNc2cc(C(F)(F)F)ccc2Cl)n(Cc2ccccc2)n1` to `COC(=O)C(Nc1ccccc1Cl)(c1cc(C)c(O)c(C)c1)C(F)(F)F` (configuration not stated), the EC50 falls from 4.92 µM to 2.5 µM (2-fold).

`CC1CCC(C(=O)c2c(O)c3ccccc3oc2=O)CC1` (configuration not stated) and `CN(C)c1nc(SCc2ccccc2Cl)nc2c1CCCC2` are within 1.5-fold of each other in EC50: 5.13 µM for the first, 6.27 µM for the second.

Going from `CC1(C)Cc2c(cnn2-c2ccccc2)-c2c1c1ccccc1n2CC(O)CCl` (configuration not stated) to `Cc1cc(C)c(C2C3=C(Nc4c2c(C)nn4-c2ccccn2)c2ccccc2C3=O)c(C)c1` (configuration not stated), the EC50 falls from 5.24 µM to 1.45 µM (3.6-fold).

Compared with `O=S(=O)(N[C@H]1C[C@@H](NS(=O)(=O)OCC(Cl)(Cl)Cl)C2CCCCC21)OCC(Cl)(Cl)Cl` (some centres not stated), `N#Cc1c(NC(=S)NC(=O)C2CCCC2)sc2c1CCCCC2` is 3.4-fold higher in EC50: 1.86 µM for the first, 6.33 µM for the second.

`Cc1ccc(-c2cc(C(F)F)nc(N3CCC(C)CC3)n2)cc1` and `Cc1cc(C)n(-c2nc(Nc3ccccc3C)nc(-n3nc(C)cc3C)n2)n1` are within 1.5-fold of each other in EC50: 5.48 µM for the first, 5.32 µM for the second.

First: Cc1nnc(SCC2=C(C(=O)O)N3C(=O)C(NC(=O)Cn4nc(C)c(Cl)c4C)C3SC2)s1 (configuration not stated)
Second: CCN1C(=O)/C(=C\c2ccc(-c3ccc([N+](=O)[O-])cc3OC)o2)SC1=Nc1cccc(C(=O)O)c1
The EC50 of the first is lower: under 0.06 µM for the first, 3.57 µM for the second. The first is the more potent here.

First: CC[C@H]1OC(=O)[C@H](C)[C@@H](O[C@H]2C[C@@](C)(OC)[C@@H](O)[C@H](C)O2)[C@H](C)[C@@H](O[C@@H]2O[C@H](C)C[C@H](N(C)C)[C@H]2O)[C@](C)(O)C[C@@H](C)C(=NOCOCCOC)[C@H](C)[C@@H](O)[C@]1(C)O
Second: C=CCn1c(O)c(C(CC)=Nc2ccc(N(C)C)cc2)c(=O)[nH]c1=O
The EC50 of the first is lower: under 0.06 µM for the first, 3.05 µM for the second.

First: CC(=O)NS(=O)(=O)c1ccc(N=c2ssc3c2-c2ccc(C)cc2NC3(C)C)cc1
Second: COc1ccc(/C=N/NC(=O)c2cc(C(C)(C)C)[nH]n2)cc1COc1ccc(F)cc1F
The EC50 of the first is 2.6-fold lower: 2.92 µM for the first, 7.62 µM for the second.

For `O=C(Nc1ccc(Cl)c(Cl)c1)Nc1nccs1`, the EC50 was 8.79 µM.

In the case of `COc1ccc(CCNC(=O)c2cccc(NS(=O)(=O)c3ccccc3F)c2)cc1OC`, the EC50 is reported as > 15 µM (inactive).
For `CN(Cc1ccc(N(C)C)cc1)C(=O)c1cc2ccccc2o1`, the EC50 was > 15 µM (inactive).
For `CC(C)C[C@H](NC(=O)N1CC(=O)Nc2ccccc21)C(=O)N[C@H](C(=O)O)c1ccccc1`, the EC50 was > 15 µM (inactive).
For `CCCn1cc(CN2CCC(n3nccc3NC(=O)c3ccccc3)CC2)c(C)n1`, the EC50 was > 15 µM (inactive).
With `Cc1nc2ccccc2c(=O)n1/N=C/c1ccc2ccccc2c1O` the EC50 was > 15 µM (inactive).
`CCN(CCn1cccn1)C(=O)CC1C(=O)NCCN1CCc1ccccc1` (configuration not stated) was tested, and the EC50 was > 15 µM (inactive).
In the case of `COc1ccc(C(=O)N2CCCC(Nc3ccc(C)c(C)c3)C2)cc1F` (configuration not stated), the EC50 is reported as > 15 µM (inactive).
